Results reported in a melting point compilation (Tetko et al.).

melting point [°C]	Structure (SMILES)
75	CC(C)(C)OC(=O)NCCC(=O)O
110 to 114	CCOc1ccc(N)c([N+](=O)[O-])c1
80	Clc1cncc(Br)c1
87	O=C(Cl)c1cc2ccccc2s1
88	CCN(CC(=O)O)C(=O)OC(C)(C)C
221	CCc1nnc(/N=N/c2c(-c3ccccc3)n(C)c3ccccc23)s1
162 to 166	O=C1OCc2cc(Br)ccc21
136 to 140	CC1(C)OC2C(=O)OC(CO)C2O1 (centres undefined)
43	COC=C(C(=O)OC)C(=O)OC
174	O=C(C1=NOC2C(=O)N(c3ccccc3)C(=O)C12)c1cccs1 (centres undefined)
40 to 45	c1ccc2c(c1)OCCOCCOCCOCCOCCO2
169	Nc1nc(-c2ccc(Cl)cc2)cs1
124 to 125	Cc1nc(CC(=O)O)cs1
-26	O=C=Nc1cccc(C(F)(F)F)c1
176	COc1ccc(CC(N)C(=O)NC2C(CO)OC(n3cnc4c(N(C)C)ncnc43)C2O)cc1 (centres undefined)
174	O=C(Cc1ccccc1)C(Cc1ccccc1)=NNc1ccc([N+](=O)[O-])cc1
237 to 238	Cc1ccc2cc3nc(C)ccc3cc2n1
118 to 121	Cc1ccc(C#N)c(C#N)c1
64	CCC1=C(C)C2=CCC=CC2=N1
60	COC(=O)C(c1ccccc1)c1ccccc1
137 to 142	C[C@H](OC(=O)Nc1ccccc1)C(=O)O
93	O=Cc1cccc2cccnc12

melting point [°C]	Structure (SMILES)
82	O=C1Nc2ccccc2/C1=C/c1ccccc1[N+](=O)[O-]
30.5	C1CCN2CC3CC(CN4CCCCC34)C2C1 (centres undefined)
163	COc1ccccc1NC(=O)C(C(F)(F)F)C(F)(F)F
268	O=c1[nH]c2ccccc2c(-c2ccccc2)c1O
111 to 112	CCCC(O)(CCC)C1(C)CCC(C(=O)O)C(C)(C)O1 (centres undefined)
62.5	CCc1cc2ccccc2c2ccccc12
202 to 204	COC(=O)C1Cc2c([nH]c3ccccc23)C(C)(C)N1 (centres undefined)
111 to 113	C=CCn1c(SC)nc2nc(SC)n(C)c2c1=O
80	Nc1c(C=O)cnn1-c1ccc(Cl)cc1
87 to 90	CC(=O)c1csc2ccc(Br)cc12
272	CC(=O)Nc1cccc(N=Nc2cccc(NC(C)=O)c2)c1
265 to 267	NNc1nc(N)nc(C23CC4CC(CC(C4)C2)C3)n1
128 to 130	OCCN1CCN(c2nc3ccc(Cl)cc3s2)CC1
251 to 252	O=c1[nH]cnc2c1cnn2C1CCCCC1
76	c1cc(SSc2ccncc2)ccn1
94.5	Brc1cn[nH]c1
100 to 102	CCOC(=O)C(C=Cc1cccc(C=CC(C(=O)OCC)C(=O)OCC)c1)C(=O)OCC
45 to 46	O=C(N=C=S)c1ccc(Cl)cc1
64	N#CCc1csc2ccccc12
170	Cc1ccc(C(=O)c2noc(-c3ccc([N+](=O)[O-])cc3)c2S(=O)(=O)c2ccccc2)cc1
28	Nc1ccc2c(c1)OCCO2
168	COc1ccc(/C=C(\C(N)=O)c2nc3ccccc3s2)cc1

melting point [°C]	Structure (SMILES)
162	O=C(Nc1ccc(Cl)c(Cl)c1)c1cc(Cl)cc(Cl)c1O
83 to 88	O=S(=O)(c1ccccc1)C1CC1(Cl)Cl (centres undefined)
171 to 173	Nc1nnc(Cc2ccccc2)[nH]1
90 to 92	CCOC(=O)C(=O)Nc1cc(C(F)(F)F)cc(C(F)(F)F)c1
219	CC(CCC(=O)O)C1CCC2C3C(O)CC4CC5(CCC4(C)C3CC(=O)C12C)OCCO5 (centres undefined)
163 to 166	CC1(C)OC2C(CO)OC(n3ccc(=O)[nH]c3=O)C2O1 (centres undefined)
160	C=CC1(C)CCC2C(=CCC3C(C)(C(=O)O)CCCC23C)C1 (centres undefined)
252	O=C1c2ccccc2C(=O)C1(O)C1(O)C(=O)c2ccccc2C1=O
159 to 160	CSc1nc(N)c(C(C)=O)s1
39	CCCCCCCCCCCCN1CC(C(=O)O)CC1=O (centres undefined)
200 to 202	CC(=O)Nc1ccsc1C(=O)O
30.5	CCCCCCCCCCCC(C)=O
210	O=C(C=NNc1ccccc1)c1ccc(C(=O)C=NNc2ccccc2)cc1
106 to 109	CC(=O)CC[C@H]1[C@@H](C#N)[C@H](C(C)C)CC[C@@]1(C)OC(C)=O
224 to 225	Nc1ccc(-c2ccc3nn(-c4ccccc4)nc3c2)cc1
236	BrC(=C(\Br)c1ccccc1)/C(Br)=C(\Br)c1ccccc1
293 to 296	Cc1cc(O)c([N+](=O)[O-])c(=O)[nH]1
234 to 236	O=C(Nc1cc(O)cc(C(=O)O)c1)OCC1c2ccccc2-c2ccccc21
140	NC(=O)C#CC#CC#CCO
118 to 119	COc1ccccc1NC(=O)c1cnc(C(C)(C)C)c(Cl)n1
190	O=[N+]([O-])c1cccc(S(=O)(=O)NCCNS(=O)(=O)c2cccc([N+](=O)[O-])c2)c1
24	O=C=Nc1c(F)cccc1F

melting point [°C]	Structure (SMILES)
244 to 245	CCC(=N\NC(N)=O)/C(C)=N\NC(N)=O
114	Cc1cc(C)c2c(-c3ccccc3)nn(-c3ccccc3)c2n1
157 to 159	CN=C1SC(CC(=O)O)C(=O)N1C (centres undefined)
134	C=C1[C@@H](c2ccccc2)[C@]2(Cl)C(=O)N(C)C(=O)[C@]12Cl
178 to 180	CC(C)(C)c1cc(C(F)(F)F)n[nH]1
92	COC(=O)C1CCCc2c1[nH]c1ccc(OC)cc21 (centres undefined)
55 to 59	O=C(CCCc1ccccc1)c1ccccc1
198 to 201	O=C(C=NO)Nc1ccc(Cl)cc1Cl
77 to 79	CCOC(=O)C(Br)C(Br)c1ccccc1 (centres undefined)
175 to 178	O=Cc1ccc(F)c(C(=O)O)c1
-37	C=CCCCC(=O)O
75	Cc1ccccc1C1=Cc2ccccc2C2(OCCO2)O1
89	N#Cc1nccc2ccccc12
257	NCCNC(=O)C(=O)NCc1ccccn1
297	Cn1ncc2c(NCCN)ncnc21
159	COc1ccc(C/C(=N\O)C(=O)O)cc1
215	O=[N+]([O-])c1cc([N+](=O)[O-])c(/C=C/c2ccc3c(c2)OCO3)cc1/C=C\c1ccc2c(c1)OCO2
119	CCNC(=O)C(C)OC(=O)Nc1ccccc1 (centres undefined)
195	CN(C)c1ccc2c(c1)Sc1cc(N(C)C)ccc1N2C(=O)c1ccccc1
99	Cc1cccc(NC(=O)c2cnc(C(C)(C)C)c(Cl)n2)c1
166 to 167	CCCCCOC(=O)C1=C(C)NC(=O)NC1c1ccco1 (centres undefined)
49	CC=C(c1ccccc1)c1ccccc1

melting point [°C]	Structure (SMILES)
184	Nc1nn2c(C(F)(F)F)cc(-c3cccs3)nc2c1/N=N/c1ccc(C(=O)O)cc1
119	CC(C)(C)NCC(O)c1cc(O)cc(O)c1 (centres undefined)
-78	CN=NC
69 to 74	OCC1OC(c2ccccc2)OC1CO (single isomer, unassigned; (+))
85 to 90	CCOC(=O)c1cc2cccc(OC)c2o1
-26	C[Si]1(C)O[Si](C)(C)O[Si](C)(C)O[Si](C)(C)O[Si](C)(C)O[Si](C)(C)O[Si](C)(C)O1
102 to 104	COc1ccccc1P(CCP(c1ccccc1)c1ccccc1OC)c1ccccc1 (centres undefined)
84	Nc1ncc(Cl)cc1Br
157 to 158	O=C(O)/C(=C/c1ccccc1)Cc1ccccc1
95	Clc1ncccc1I
222	CCc1c2c(nc3ccc(OC(=O)N4CCC(N5CCCCC5)CC4)cc13)-c1cc3c(c(=O)n1C2)COC(=O)C3(O)CC (centres undefined)
212 to 216	CC(=O)Nc1cc(F)ccc1C(=O)O
66 to 68	COc1ccc(C2CCCCC2)cc1N
158	CC12CCC(=O)C=C1CCC1C3CCC4(CCC(=O)O4)C3CCC12C (centres undefined)
-47	COC(C)(C)OC
79 to 81	N#Cc1ccc(C#N)c(OC(F)(F)F)c1
121 to 122	CC(=O)c1sc(-c2cccs2)nc1C
171 to 173	NNC(=S)NCc1cccnc1
165	O=[N+]([O-])c1ccc(-c2ccc(NNc3ccccc3)cc2)cc1
132 to 136	CC(C)(C)OC(=O)N1CSC[C@H]1C(=O)O

Structure (SMILES)	melting point [°C]
CC(C)C(Br)C(=O)NC(N)=O (centres undefined)	154
CC1=CC(=O)c2c(O)cccc2C1=O	78.5
CCCCC(O)(Cn1cncn1)c1ccc(Cl)cc1Cl (centres undefined)	111
Cc1nc(N)nc(NN)n1	250
CC12CCC3C4CCC(=O)C=C4CCC3C1CCC2OC(=O)CCc1ccccc1 (centres undefined)	118
CNc1cnn(-c2cccc(C(F)(F)F)c2)c(=O)c1Cl	184
O=c1oc2ccccc2c(O)c1C(CC(O)c1ccc(-c2ccc(Br)cc2)cc1)c1ccccc1 (centres undefined)	199
CC(=O)OC1CCC2C3CCC4CC5(CCC4(C)C3CCC12C)OCCO5 (centres undefined)	144
BrCc1cc(CBr)c(CBr)cc1CBr	156 to 162
O=[N+]([O-])C=Cc1c(F)cccc1Cl	63
CC(C)CC(N)CC(=O)O (centres undefined)	249 to 250
COc1ccc2c(c1O)-c1cccc3c1C(C2)N(C)CC3 (centres undefined)	124
Oc1ccc2c(O)c3ccccc3cc2c1O	208
C#CC1(OC(N)=O)CCCCC1	96
O=CC(Cl)C=O	140 to 145
COc1cc(C=C[N+](=O)[O-])ccc1OCc1ccccc1	123
